Source: patent publication US20250230147A1, “LACTAMS AS CBL-B INHIBITORS” (Genentech, Inc., priority 2021, published 2025)

What was measured:
Cbl-b = Cbl-b (Homo sapiens (Human), UniProt Q13191); experiment: Cbl-b LCK Ub TR-FRET assay (Cbl-b Lck HTRF); format: biochemical
In short: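 TR-FRET (340 nm excitation, 615/665 nm emission) read after adding HA-ubiquitin–UBE2D2 thioester, anti-HA-D2 and streptavidin-Eu. Beforehand, compounds incubated 60 min with biotinylated Cbl-b, then 90 min with His-LCK and ATP (1 mM in 2× mix); IC50 from 10 concentrations, DMSO high and no-LCK low controls.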

c-Cbl = c-Cbl (Homo sapiens (Human), UniProt P22681); experiment: C-Cbl LCK Ub TR-FRET assay (c-cbl Lck HTRF); format: biochemical; details: for (fold-selectivity): C-cbl Lck HTRF IC50 relative to Cbl-b Lck HTRF IC50
In short: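 After the ubiquitination reaction, detection mixture was added and plates incubated 20 min at room temperature before reading. IC50 values were calculated with wells lacking LCK as the low control and DMSO as the high control.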

Sequence of Cbl-b (Q13191 40-426): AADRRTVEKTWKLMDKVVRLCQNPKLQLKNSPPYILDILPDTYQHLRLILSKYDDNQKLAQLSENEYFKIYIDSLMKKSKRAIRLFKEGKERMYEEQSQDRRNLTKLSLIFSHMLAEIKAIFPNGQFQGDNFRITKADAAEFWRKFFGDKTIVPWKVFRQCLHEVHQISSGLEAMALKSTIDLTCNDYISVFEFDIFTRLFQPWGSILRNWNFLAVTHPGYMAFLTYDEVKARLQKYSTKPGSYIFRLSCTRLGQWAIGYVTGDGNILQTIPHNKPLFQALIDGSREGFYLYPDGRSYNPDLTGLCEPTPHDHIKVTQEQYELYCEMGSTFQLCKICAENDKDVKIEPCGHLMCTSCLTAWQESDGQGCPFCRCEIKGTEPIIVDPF
Sequence of c-Cbl (P22681 47-435): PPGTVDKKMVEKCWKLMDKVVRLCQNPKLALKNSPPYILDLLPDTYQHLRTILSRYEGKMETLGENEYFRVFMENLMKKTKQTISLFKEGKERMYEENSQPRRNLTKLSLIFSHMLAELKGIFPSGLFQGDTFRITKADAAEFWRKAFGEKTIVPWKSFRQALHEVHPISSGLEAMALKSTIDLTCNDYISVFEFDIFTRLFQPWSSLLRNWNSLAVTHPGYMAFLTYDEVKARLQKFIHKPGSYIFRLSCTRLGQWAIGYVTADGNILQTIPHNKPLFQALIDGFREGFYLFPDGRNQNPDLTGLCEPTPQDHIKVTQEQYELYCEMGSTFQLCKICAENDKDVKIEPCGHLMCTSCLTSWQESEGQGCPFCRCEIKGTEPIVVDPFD

IC50 (Cbl-b)	IC50 (c-Cbl)	(fold-selectivity) (c-Cbl)	SMILES
15 nM	14 nM	(0.94x)	CC[C@H](C)NCc1cc2c(c(C(F)(F)F)c1)CN(c1cccc(C3(Cc4nncn4C)CC(F)(F)C3)c1)C2=O [Compound 371, (S)-6-((sec-butylamino)methyl)-2-(3-(3,3-difluoro-1-((4-methyl-4H-1,2,4-triazol-3-yl)methyl)cyclobutyl)phenyl)-4-(trifluoromethyl)isoindolin-1-one]
28 nM	34 nM	(1.2x)	Cn1cnnc1CC1(c2cccc(N3Cc4c(cc(CNC(C)(C)CF)cc4C(F)(F)F)C3=O)c2)CC(F)(F)C1 [Compound 372, 2-(3-(3,3-difluoro-1-((4-methyl-4H-1,2,4-triazol-3-yl)methyl)cyclobutyl)phenyl)-6-(((1-fluoro-2-methylpropan-2-yl)amino)methyl)-4-(trifluoromethyl)isoindolin-1-one]
20 nM	25 nM	(1.3x)	COC(C)(C)CNCc1cc2c(c(C(F)(F)F)c1)CN(c1cccc(C3(Cc4nncn4C)CC(F)(F)C3)c1)C2=O [Compound 373, 2-(3-(3,3-difluoro-1-((4-methy-4H-1,2,4-triazol-3-yl)methyl)cyclobutyl)phenyl)-6-(((2-methoxy-2-methylpropyl)amino)methyl)-4-(trifluoromethyl)isoindolin-1-one]
100 nM	99 nM	(1.0x)	CN1CCN(Cc2cc3c(c(C(F)(F)F)c2)CN(c2cccc(C4(Cc5nncn5C)CC(F)(F)C4)c2)C3=O)C(C(F)(F)F)C1 (stereo not drawn) [Compound 374, 2-(3-(3,3-difluoro-1-((4-methyl-4H-1,2,4-triazol-3-yl)methyl)cyclobutyl)phenyl)-6-((4-methyl-2-(trifluoromethyl)piperazin-1-yl)methyl)-4-(trifluoromethyl)isoindolin-1-one]
22 nM	14 nM	(0.65x)	CCOc1cc(C2(Cc3nncn3C)COC2)cc(N2Cc3c(cc(CN4CCC(F)(F)[C@H](C)C4)cc3C(F)(F)F)C2=O)n1 [Compound 375, (R)-6-((4,4-difluoro-3-methylpiperidin-1-yl)methyl)-2-(6-ethoxy-4-(3-((4-methyl-4H-1,2,4-triazol-3-yl)methyl)oxetan-3-yl)pyridin-2-yl)-4-(trifluoromethyl)isoindolin-1-one]
20000 nM	20000 nM	(1.0x)	CC(C)[C@H]1CN(C)CCN1Cc1cc2c(c(C(F)(F)F)c1)CN(c1cccc(C3([C@H](F)c4n[nH]cc4C(F)(F)F)COC3)c1)C2=O [Compound 376, 2-(3-(3-((S)-fluoro(4-(trifluoromethyl)-1H-pyrazol-3-yl)methyl)oxetan-3-yl)phenyl)-6-(((S)-2-isopropyl-4-methylpiperazin-1-yl)methyl)-4-(trifluoromethyl)isoindolin-1-one]
10000 nM	20000 nM	(2.0x)	CC(C)[C@H]1CN(C)CCN1Cc1cc2c(c(C(F)(F)F)c1)CN(c1cccc(C3([C@@H](F)c4n[nH]cc4C(F)(F)F)COC3)c1)C2=O [Compound 377, 2-(3-(3-((R)-fluoro(4-(trifluoromethyl)-1H-pyrazol-3-yl)methyl)oxetan-3-yl)phenyl)-6-(((S)-2-isopropyl-4-methylpiperazin-1-yl)methyl)-4-(trifluoromethyl)isoindolin-1-one]
89 nM	99 nM	(101x)	Cl.Cn1cnnc1CC1(c2cc(NCc3ccncc3)nc(N3Cc4c(cc(CNC5(C)CCC5)cc4C(F)(F)F)C3=O)c2)CCC1 [Compound 380, 2-(4-(1-((4-methyl-4H-1,2,4-triazol-3-yl)methyl)cyclobutyl)-6-((pyridin-4-ylmethyl)amino)pyridin-2-yl)-6-(((1-methylcyclobutyl)amino)methyl)-4-(trifluoromethyl)isoindolin-1-one hydrochloride]
